In one assay the target is T1, KCC2-S940A (Homo sapiens, UniProt Q9H2X9, S963A).
T1 construct: expressed in transfected cells; host or cells: HEK-293
T1 sequence (Q9H2X9 1-1116 isoform Q9H2X9-2 S940A): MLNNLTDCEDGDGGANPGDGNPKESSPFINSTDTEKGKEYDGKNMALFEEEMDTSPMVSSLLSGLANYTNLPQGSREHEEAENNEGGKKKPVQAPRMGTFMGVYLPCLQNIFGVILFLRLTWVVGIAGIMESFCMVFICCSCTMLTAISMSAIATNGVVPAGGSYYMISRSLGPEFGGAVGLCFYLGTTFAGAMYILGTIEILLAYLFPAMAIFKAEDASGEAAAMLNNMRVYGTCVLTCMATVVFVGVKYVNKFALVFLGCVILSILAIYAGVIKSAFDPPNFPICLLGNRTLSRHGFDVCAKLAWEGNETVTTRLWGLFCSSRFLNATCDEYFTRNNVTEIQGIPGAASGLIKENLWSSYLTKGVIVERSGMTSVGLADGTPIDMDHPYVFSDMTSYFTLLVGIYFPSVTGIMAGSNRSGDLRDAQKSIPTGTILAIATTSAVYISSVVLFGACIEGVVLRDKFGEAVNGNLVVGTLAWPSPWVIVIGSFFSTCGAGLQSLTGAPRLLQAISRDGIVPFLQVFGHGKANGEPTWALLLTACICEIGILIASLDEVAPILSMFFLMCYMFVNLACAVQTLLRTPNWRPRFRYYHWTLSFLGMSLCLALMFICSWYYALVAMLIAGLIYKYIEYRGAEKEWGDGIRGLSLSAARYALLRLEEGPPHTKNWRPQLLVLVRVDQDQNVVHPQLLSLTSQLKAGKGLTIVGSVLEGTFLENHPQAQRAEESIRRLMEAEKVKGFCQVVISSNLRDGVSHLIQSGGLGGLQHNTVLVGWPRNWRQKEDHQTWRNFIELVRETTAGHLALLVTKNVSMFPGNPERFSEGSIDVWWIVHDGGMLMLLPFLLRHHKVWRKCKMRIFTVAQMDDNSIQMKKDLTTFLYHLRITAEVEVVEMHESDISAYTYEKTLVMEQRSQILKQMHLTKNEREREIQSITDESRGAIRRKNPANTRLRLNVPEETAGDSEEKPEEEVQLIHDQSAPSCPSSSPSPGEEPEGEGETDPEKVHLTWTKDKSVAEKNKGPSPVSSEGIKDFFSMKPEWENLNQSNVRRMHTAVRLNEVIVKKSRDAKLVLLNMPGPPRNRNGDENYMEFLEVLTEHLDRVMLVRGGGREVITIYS
Kind of assay: Tl+ flux assay, HEK-293 cells expressing KCC2-S940A. The assay is classed as cell-based. As to the method:
FLIPR TI Flux assay. HEK-293 cells were washed with HBSS, and then incubated with loading buffer containing TI sensitive fluorescent dye (https://www.moleculardevices.com), 20 μM bumetanide 20 μM ouabain and 2.5 mM probenecid for 1 h at room temperature (RT) under control conditions or with drugs in the dark using a FlexStation 3 microplate reader (Molecular Devices) and imaged […] for 30 min. Stimulus buffer was added containing 5 mM K^+/0.5 mM Tl^+ and cells were imaged every 1.5 over a 190 second time course The initial rate Tl^+ uptake (Relative Fluorescence Units (RFU) per second) was determined following addition of the stimulus buffer as outlined previously (Conway et al., 2017, supra) (Lee et al., 2022, supra).
Compared to KCC2, effects on KCC3, KCC4, and NKCC1 were only seen at concentrations more than 35-fold that of KCC2 (>100 μM) (FIG. 1G).

Assay [1] concerns panel of 144 protein kinases. Kind of assay: SelectScreen panel of 144 protein kinases. The assay is classed as biochemical. Conditions: includes PKC isoforms, OSR1, SPAK (STK39), WNK. The method, then: Aliquots of HEK-293 cells expressing KCC2 were exposed to 30 μM SSA, heated from 37-55° C. The remaining level of soluble native KCC2 at each temperature was measured by immunoblotting and normalized to the level seen at 37° C. which was given a value of 1. […] This panel included protein kinase C isoforms, OSR1, SPAK (STK39) and with-no-lysine kinases (WNK), all of which phosphorylate KCC2 on multiple residues to indirectly modify its activity (Kahle et al., 2013, supra; Smalley et al., 2020, supra).

The structures appear in SMILES notation.

Turning to `C[C@@H]1CN(c2nc3c(c(Nc4ccc(C5CCCCC5)cc4)n2)COC3)CCO1` [Compound A, (R)—N-(4-cyclohexylphenyl)-2-(2-methylmorpholino)-5,7-dihydrofuro[3,4-d]pyrimidin-4-amine], the “activity of KCC2-S940A construct” value at KCC2-S940A is “increased the activity”. The “activity of a panel of 144 protein kinases” value in assay [1] is recorded as “did not modify the activity”.
